This note sets out measurements from patent publication US9155699B2, “Pulmonary delivery for levodopa” (Civitas Therapeutics, Inc., priority 2002, dated 2015).

One data set can be described thus: in vivo. The settings on record: plasma.
The conditions of data set [1]: 120 minutes after administration.

Molecules are shown by their SMILES.

For the molecule `N[C@@H](Cc1ccc(O)c(O)c1)C(=O)O` [L-Dopa, Levodopa], the concentration at 2 min in “in vivo” (inhaled) came to 5000 ng/mL; in the data set “in vivo” (po), 1000 ng/mL. In data set [1], the “plasma level, methods of the invention compared to oral administration” value was “twice as high”.
